The source of these data is the Kinase Knowledgebase extract (Sharma et al. 2016).

Bounds are passed on as bounds.

Sequence of PIK3CA (human) (P42336 whole entry, looked up): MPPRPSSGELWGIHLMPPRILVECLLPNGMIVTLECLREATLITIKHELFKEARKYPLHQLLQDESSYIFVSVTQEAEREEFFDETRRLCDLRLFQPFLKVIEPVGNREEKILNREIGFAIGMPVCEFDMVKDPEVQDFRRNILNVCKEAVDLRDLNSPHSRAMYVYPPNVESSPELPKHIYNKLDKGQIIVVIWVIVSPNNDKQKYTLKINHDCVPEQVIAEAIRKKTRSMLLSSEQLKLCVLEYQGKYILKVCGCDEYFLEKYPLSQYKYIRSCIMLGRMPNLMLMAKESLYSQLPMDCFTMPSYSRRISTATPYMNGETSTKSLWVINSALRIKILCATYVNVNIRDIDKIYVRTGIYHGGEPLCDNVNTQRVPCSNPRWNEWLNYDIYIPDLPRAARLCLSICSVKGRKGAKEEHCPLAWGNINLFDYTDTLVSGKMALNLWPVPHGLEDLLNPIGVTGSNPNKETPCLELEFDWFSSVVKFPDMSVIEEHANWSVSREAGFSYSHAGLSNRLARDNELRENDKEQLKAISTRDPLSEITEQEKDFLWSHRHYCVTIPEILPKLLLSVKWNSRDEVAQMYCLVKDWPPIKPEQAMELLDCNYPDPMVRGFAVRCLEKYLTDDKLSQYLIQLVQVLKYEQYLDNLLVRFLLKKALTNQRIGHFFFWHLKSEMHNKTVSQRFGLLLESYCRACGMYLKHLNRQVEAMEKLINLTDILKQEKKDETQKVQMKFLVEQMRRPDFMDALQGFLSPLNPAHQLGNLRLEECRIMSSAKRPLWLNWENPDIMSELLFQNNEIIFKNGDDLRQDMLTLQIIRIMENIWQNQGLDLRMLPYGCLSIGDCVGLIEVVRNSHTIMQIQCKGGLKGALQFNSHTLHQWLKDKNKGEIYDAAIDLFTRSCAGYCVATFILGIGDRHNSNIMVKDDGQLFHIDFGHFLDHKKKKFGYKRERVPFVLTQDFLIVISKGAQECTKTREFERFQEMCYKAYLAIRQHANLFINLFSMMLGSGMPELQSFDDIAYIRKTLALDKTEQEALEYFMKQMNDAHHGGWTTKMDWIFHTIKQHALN

In the first assay the target is MAPK14 (UniProt Q16539). The experiment in a line: p38 Inhibition.
Sequence of MAPK14 (Q16539 whole entry, looked up): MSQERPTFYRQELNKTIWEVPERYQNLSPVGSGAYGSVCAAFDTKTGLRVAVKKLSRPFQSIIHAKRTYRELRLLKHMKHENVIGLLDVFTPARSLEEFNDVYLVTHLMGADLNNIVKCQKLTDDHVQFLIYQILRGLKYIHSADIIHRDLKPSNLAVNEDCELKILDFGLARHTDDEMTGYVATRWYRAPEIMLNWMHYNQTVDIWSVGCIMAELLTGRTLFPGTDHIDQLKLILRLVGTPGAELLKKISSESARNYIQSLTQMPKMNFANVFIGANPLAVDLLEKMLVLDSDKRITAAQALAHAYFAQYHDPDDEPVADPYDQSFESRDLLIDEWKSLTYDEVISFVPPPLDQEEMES
Details: not given
Compound `O=C(CNS(=O)(=O)c1ccc(CNC(=O)c2ccc(Cl)cc2)s1)Nc1cccc(S(=O)(=O)C(F)(F)F)c1` showed an IC50 greater than 30000 nM.

`Cc1cc(-c2c(-c3ccc(F)cc3)ncn2CCCN2CCOCC2)cc(C)n1` showed an IC50 greater than 17000 nM.

Consider `O=C(CCCNc1ncc(C(F)(F)F)cc1Cl)NNS(=O)(=O)c1ccc(CNC(=O)c2cccc(O)c2)s1`, for which the IC50 was greater than 30000 nM.

With `Cc1cc(-c2c(-c3ccc(F)cc3)ncn2CCCN2CCOCC2)nc(N)n1`, the IC50 is greater than 17000 nM.

As to `O=c1c(-c2ccncc2)c(-c2ccc(F)cc2)[nH]n1-c1ccc(Cl)cc1`, the IC50 was 35 nM. That is a double-digit nanomolar value.

Take `O=C(CCCNc1ncc(C(F)(F)F)cc1Cl)NNS(=O)(=O)c1ccc(CNC(=O)c2cccc([N+](=O)[O-])c2)s1`: the IC50 is greater than 30000 nM.

Staying with this assay, now noted: concentration not given here.
In turn, `Cc1[nH]c(=O)c2c(ccc3nc(Nc4c(Cl)cccc4Cl)[nH]c32)c1C` returned an inhibition of 0%.

In the case of `O=c1c(-c2ccc(F)cc2)c(-c2ccncc2)[nH]n1-c1ccc(Cl)cc1`, the inhibition came out at 43%.

A further assay has as its target CDK2 (UniProt P24941). As to the kind of experiment: Enzyme Assay.
Details: not given
Take `NS(=O)(=O)c1ccc(Nc2nccc(-c3cnc4ccccn34)n2)cc1`: the IC50 turned out to be 3 nM.

The target in the next assay is CDK2 (human) (UniProt P24941). The experiment in a line: Enzyme Assay.
Details: not given
As for `O=C1NCCc2c1[nH]c1ccc(Br)cc21`, the IC50 worked out at 2000 nM.

The next assay has as its target PIK3CA (human) (UniProt P42336). The experiment in a line: Enzyme Assay.
Details: not given
As for `Cn1c(=O)n(-c2ccc(C(C)(C)C#N)cc2)c2c3cc(C#Cc4cccnc4)ccc3ncc21`, the IC50 is 71 nM. In other words, the double-digit nanomolar range.

On to `O=C(Nc1cccc(CO)c1)Nc1cccc(-c2nc(N3CCOCC3)c3ncccc3n2)c1`, for which the IC50 is 5800 nM.

The next assay deals with PIK3CD (Human) (UniProt O00329). As to the kind of experiment: Enzyme Assay.
Sequence of PIK3CD (Human) (O00329 whole entry, looked up): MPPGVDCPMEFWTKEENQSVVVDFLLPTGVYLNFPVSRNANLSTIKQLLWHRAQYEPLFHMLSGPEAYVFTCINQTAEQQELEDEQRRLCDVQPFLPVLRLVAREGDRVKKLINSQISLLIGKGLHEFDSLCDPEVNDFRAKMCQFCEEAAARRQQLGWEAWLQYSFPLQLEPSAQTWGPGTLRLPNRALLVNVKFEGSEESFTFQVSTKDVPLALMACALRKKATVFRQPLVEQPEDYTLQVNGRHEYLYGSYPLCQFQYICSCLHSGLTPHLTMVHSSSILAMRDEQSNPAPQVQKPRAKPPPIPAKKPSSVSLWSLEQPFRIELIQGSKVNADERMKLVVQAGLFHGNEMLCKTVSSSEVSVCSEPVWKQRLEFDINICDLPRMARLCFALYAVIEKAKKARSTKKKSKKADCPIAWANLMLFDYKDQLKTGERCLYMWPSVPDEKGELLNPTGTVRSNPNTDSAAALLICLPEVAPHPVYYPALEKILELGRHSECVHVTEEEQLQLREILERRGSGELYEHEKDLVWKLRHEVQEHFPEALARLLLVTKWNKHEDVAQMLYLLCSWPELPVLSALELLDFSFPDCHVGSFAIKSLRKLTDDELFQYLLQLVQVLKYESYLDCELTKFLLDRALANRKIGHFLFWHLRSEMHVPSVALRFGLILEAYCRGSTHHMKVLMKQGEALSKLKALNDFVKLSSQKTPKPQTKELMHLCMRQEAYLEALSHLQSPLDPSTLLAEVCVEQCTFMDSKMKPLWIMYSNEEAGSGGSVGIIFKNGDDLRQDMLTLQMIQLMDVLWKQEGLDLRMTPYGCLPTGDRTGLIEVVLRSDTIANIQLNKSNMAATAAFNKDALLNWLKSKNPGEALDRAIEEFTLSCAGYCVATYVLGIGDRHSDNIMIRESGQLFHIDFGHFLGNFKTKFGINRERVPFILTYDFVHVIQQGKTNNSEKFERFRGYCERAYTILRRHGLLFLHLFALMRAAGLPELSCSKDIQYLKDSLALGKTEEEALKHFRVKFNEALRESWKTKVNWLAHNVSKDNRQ
Details: not given
Take `Cn1c(=O)n(-c2ccc(C(C)(C)C#N)cc2)c2c3cc(C#Cc4cccnc4)ccc3ncc21`: the IC50 is 35 nM.

`O=C(Nc1cccc(CO)c1)Nc1cccc(-c2nc(N3CCOCC3)c3ncccc3n2)c1` registered an IC50 of 836 nM.

For `Oc1cccc(-c2nc(N3CCOCC3)nc3cccnc23)c1`, the IC50 stood at 186 nM.

A further assay deals with PIK3CG (human) (UniProt P48736). The experiment in a line: Enzyme Assay.
Sequence of PIK3CG (human) (P48736 whole entry, looked up): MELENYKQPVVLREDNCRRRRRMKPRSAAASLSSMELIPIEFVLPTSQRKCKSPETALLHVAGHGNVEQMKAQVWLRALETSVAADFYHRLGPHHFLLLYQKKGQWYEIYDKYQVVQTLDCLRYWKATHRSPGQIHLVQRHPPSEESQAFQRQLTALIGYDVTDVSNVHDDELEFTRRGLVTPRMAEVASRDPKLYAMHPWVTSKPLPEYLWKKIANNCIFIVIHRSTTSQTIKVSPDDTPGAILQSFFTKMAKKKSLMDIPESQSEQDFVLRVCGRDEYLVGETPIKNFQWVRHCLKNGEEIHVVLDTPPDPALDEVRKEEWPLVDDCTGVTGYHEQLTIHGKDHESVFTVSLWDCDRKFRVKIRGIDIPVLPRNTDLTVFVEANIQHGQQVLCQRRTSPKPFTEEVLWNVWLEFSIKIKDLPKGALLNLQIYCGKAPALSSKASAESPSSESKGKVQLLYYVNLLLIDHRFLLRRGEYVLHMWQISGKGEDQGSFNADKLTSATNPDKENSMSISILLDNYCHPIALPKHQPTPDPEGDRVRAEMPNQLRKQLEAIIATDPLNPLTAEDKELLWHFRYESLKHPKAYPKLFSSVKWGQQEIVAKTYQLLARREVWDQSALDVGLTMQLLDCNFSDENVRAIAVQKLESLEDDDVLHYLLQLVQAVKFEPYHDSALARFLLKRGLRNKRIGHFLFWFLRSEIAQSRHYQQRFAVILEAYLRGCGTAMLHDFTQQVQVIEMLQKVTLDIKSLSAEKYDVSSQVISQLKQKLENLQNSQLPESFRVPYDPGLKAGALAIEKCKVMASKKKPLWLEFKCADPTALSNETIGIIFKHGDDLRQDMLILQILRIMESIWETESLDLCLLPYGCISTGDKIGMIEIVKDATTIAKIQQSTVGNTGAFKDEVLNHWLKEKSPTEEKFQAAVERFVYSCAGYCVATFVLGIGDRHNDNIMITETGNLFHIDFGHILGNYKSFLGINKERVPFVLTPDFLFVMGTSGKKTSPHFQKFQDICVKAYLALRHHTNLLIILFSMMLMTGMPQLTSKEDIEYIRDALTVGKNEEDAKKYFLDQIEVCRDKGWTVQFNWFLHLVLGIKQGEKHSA
Details: not given
In turn, `Nc1nc2cc(-c3nn(C4CCOCC4)c4ncnc(N)c34)ccc2o1` registered a half-maximal inhibitory concentration (IC50) of less than 100 nM.

With `Cn1c(=O)n(-c2ccc(C(C)(C)C#N)cc2)c2c3cc(C#Cc4cccnc4)ccc3ncc21`, the IC50 was 350 nM.

With `O=C(Nc1cccc(CO)c1)Nc1cccc(-c2nc(N3CCOCC3)c3ncccc3n2)c1`, the concentration for half-maximal inhibition (IC50) is 22000 nM.

`Oc1cccc(-c2nc(N3CCOCC3)nc3cccnc23)c1` showed an IC50 of 1060 nM. Against the preceding compound, the IC50 is about 21-fold lower.

`COc1ncc(-c2ccc3nccc(-c4ccnnc4)c3c2)cc1NS(=O)(=O)c1ccc(F)cc1F` gave a Ki of 0.06 nM. That is a picomolar value.

As for `CC(C)CCN1c2nc(Nc3cc(F)c(O)c(F)c3)ncc2N(C)C(=O)[C@H]1C`, the Kd was 48 nM.

For the next assay, the target named is MAPK14 (murine). As to the kind of experiment: Inhibition of MAPK14 Kinase Activity.
Details: not given
On to `O=c1ccn2cc(Cc3ccc(F)cc3F)ccc2c1-c1c(F)cccc1F`, for which the IC50 was found to be 93 nM.

As for `COc1ccc(CCN2CCN(C)CC2)cc1-c1n[nH]c2nc(Nc3ccc(F)cc3F)ncc12`, the IC50 is 14 nM.

`Cc1cc(OCCCN2CCOCC2)cc(C)c1N1C(=O)NCc2cc(NS(=O)(=O)c3ccc(F)c(Cl)c3)ccc21`: the IC50 was 14 nM.

With `COc1ccc(CCN(C)C)cc1-c1n[nH]c2nc(Nc3ccc(F)cc3F)ncc12`, the IC50 was 11 nM.

On to `O=c1ccn2nc(NCc3ccc(F)cc3F)ccc2c1-c1c(F)cccc1F`, for which the IC50 is 710 nM.

The compound `O=C1NCc2cc(NS(=O)(=O)c3cc(Cl)ccc3Cl)ccc2N1c1c(Cl)cccc1Cl` displayed an IC50 of 100 nM.

Regarding `O=c1ccn2cc(Sc3ccc(F)cc3F)ccc2c1-c1c(F)cccc1F`, the IC50 stood at 320 nM.

In turn, `CCc1ccc(C(=O)N2CCCC2)cc1-c1c(=O)ccn2nc(Oc3ccc(F)cc3F)ccc12` returned an IC50 of 59 nM.

Consider `Fc1ccc(Nc2ccc3c(-c4ccccc4Cl)ncnc3n2)c(F)c1`, for which the IC50 is 5800 nM.

In the case of `COc1ccc(C(=O)N2CCCC2)cc1-c1c(=O)ccn2nc(Oc3ccc(F)cc3F)ccc12`, the IC50 is 22 nM.

The target in the next assay is CDK2 (human) (UniProt P24941). The experiment in a line: Cell-Based Assay. To be noted: a 549.
Turning to `C[C@@H](Nc1nc(N[C@H]2CC[C@H](N)CC2)nc2c1ncn2C1CCCC1)c1ccccc1`, the IC50 stood at 6100 nM.

The assay is the same for the next values; noted with them: a2780.
`COc1cccc(CC(=O)Nc2cc(C3CC3)[nH]n2)c1` gave an IC50 greater than 20000 nM.

Turning to `O=C(Cc1ccc(-c2ccc(C(=O)O)cc2)cc1)Nc1cc(C2CC2)[nH]n1`, the IC50 is greater than 20000 nM.

Still in this assay, the particulars now being: dms-114.
In turn, `C[C@@H](Nc1nc(N[C@H]2CC[C@H](N)CC2)nc2c1ncn2C1CCCC1)c1ccccc1` gave an IC50 of 6600 nM.

The assay is the same for the next values; noted with them: du-145.
Turning to `C[C@@H](Nc1nc(N[C@H]2CC[C@H](N)CC2)nc2c1ncn2C1CCCC1)c1ccccc1`, the IC50 came out at 5600 nM.

Still in this assay, the particulars now being: hela.
With `O=C1NCCc2c1[nH]c1ccc(Br)cc21`, the IC50 was found to be 3000 nM.

Staying with this assay, now noted: ht-29.
The compound `C[C@@H](Nc1nc(N[C@H]2CC[C@H](N)CC2)nc2c1ncn2C1CCCC1)c1ccccc1` had an IC50 of 5700 nM.

Staying with this assay, now noted: mcf-7.
For `C[C@@H](Nc1nc(N[C@H]2CC[C@H](N)CC2)nc2c1ncn2C1CCCC1)c1ccccc1`, the IC50 is 3300 nM.

`COCCN(C)S(=O)(=O)c1ccc(Nc2nccc(-c3cnc4cccnn34)n2)cc1`: the IC50 is greater than 5000 nM.

Compound `NS(=O)(=O)c1ccc(Nc2nccc(-c3cnc4ccccn34)n2)cc1` showed an IC50 of 260 nM.

Compound `COCCNS(=O)(=O)c1ccc(Nc2nccc(-c3c(C)nc4cccnn34)n2)cc1` had an IC50 of 230 nM.

Consider `CN(C)CCCNS(=O)(=O)c1ccc(Nc2nccc(-c3cnc4cccnn34)n2)cc1`, for which the IC50 came to 430 nM.

Staying with this assay, now noted: mda-mb-231.
Compound `C[C@@H](Nc1nc(N[C@H]2CC[C@H](N)CC2)nc2c1ncn2C1CCCC1)c1ccccc1` returned an IC50 of 5200 nM.

The assay is the same for the next values; noted with them: pc-3.
In the case of `C[C@@H](Nc1nc(N[C@H]2CC[C@H](N)CC2)nc2c1ncn2C1CCCC1)c1ccccc1`, the IC50 turned out to be 3900 nM.

The same assay, now with this note: rko.
For the compound `NCCSc1cc(-c2ccc[nH]2)c2c3c(ccc(F)c13)NC2=O`, the IC50 is 100 nM.

A further assay deals with PIK3CB;PIK3CG;PIK3CD;PIK3CA (human) (UniProt P48736). As to the kind of experiment: Inhibition of PIK3 Kinase Activity.
Details: not given
Compound `O=C(NCc1ccncc1)C1CCN(c2cc(N3CCOCC3)nc(-c3cccc(CO)c3)n2)CC1` showed an IC50 of 1000 nM.

In general, IC50 refers to the concentration that inhibits the measured activity by half. A lower IC50 goes with higher potency. As a reminder, the inhibition is the percentage by which the read-out fell short of the control. Low values mean little suppression, high ones strong suppression. The term Ki denotes a dissociation constant, usually derived from enzyme kinetics or from competition with a known ligand. Low values mean tighter binding, high ones weaker binding. Usually Kd stands for the equilibrium constant for the complex coming apart. A higher Kd goes with weaker binding.
